Molecular target: T1, sGC α1/β1 heterodimer stably expressed in CHO-K1 cells (CHO-K1/sGC) (Homo sapiens, UniProt Q02108+Q02153)
T1 construct: expressed in transfected cells
T1 sequence (Q02108 1-690): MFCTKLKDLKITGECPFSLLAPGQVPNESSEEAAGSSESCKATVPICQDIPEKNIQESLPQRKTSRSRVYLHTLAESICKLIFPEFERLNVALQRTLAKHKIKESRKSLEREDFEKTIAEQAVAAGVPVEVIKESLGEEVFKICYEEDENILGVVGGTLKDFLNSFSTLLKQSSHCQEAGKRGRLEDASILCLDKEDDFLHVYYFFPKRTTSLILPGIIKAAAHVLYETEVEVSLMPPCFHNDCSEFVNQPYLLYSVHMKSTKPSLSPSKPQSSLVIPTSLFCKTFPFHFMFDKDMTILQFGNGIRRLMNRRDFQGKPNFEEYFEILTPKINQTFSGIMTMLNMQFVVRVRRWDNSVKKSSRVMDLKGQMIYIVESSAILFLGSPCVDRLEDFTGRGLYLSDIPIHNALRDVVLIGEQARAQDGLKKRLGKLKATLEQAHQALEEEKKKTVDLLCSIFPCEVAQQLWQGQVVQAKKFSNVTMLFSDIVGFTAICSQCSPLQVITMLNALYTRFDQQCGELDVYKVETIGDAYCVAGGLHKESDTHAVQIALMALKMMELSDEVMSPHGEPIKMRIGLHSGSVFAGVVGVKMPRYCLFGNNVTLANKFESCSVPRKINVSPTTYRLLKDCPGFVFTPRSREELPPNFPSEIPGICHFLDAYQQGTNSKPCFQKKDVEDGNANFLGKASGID
T1 sequence (Q02153 1-619): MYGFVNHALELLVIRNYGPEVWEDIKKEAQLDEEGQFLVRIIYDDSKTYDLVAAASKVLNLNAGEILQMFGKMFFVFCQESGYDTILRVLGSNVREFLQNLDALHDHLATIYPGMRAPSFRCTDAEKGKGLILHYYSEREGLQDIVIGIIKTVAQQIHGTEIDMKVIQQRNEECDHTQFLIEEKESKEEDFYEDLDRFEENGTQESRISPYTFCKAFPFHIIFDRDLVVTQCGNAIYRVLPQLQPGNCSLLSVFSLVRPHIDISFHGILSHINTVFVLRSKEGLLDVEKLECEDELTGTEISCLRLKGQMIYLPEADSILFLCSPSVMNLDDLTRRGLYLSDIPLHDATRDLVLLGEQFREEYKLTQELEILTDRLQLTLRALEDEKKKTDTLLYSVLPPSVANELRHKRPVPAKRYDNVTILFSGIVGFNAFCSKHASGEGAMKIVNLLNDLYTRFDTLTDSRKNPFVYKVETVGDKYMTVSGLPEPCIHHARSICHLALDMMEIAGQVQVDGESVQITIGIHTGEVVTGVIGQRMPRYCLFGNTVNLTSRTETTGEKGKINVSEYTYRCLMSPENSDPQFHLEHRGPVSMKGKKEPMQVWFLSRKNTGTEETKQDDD
Experiment: Cell-based sGC functional assay (CASA assay), cGMP generation by HTRF
Details: for Emax: CHO-K1, maximum cGMP production of Compound A set to 100% activation, read-out: % Act. (percent activation relative to Compound A); for EC50: CHO-K1/sGC cells, 1 hr at 37° C., 4P fit, presence or absence of DETA-NO not given, read-out: IP (nM) (inflection point); for % Act. (percent activation relative to Compound A): maximum cGMP production of Compound A set to 100% activation
In short: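 CHO-K1/sGC cells (4×10^5/mL) in EBSS with 5 mM MgCl2, 10 mM HEPES, 0.05% BSA and 0.5 mM IBMX, treated 1 hr at 37° C with compounds (2.5% DMSO) with or without 1 μM DETA-NO. cGMP measured by HTRF, expressed as % of a reference heme-dependent activator's maximum; inflection point and fold induction from 4P fit.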

SMILES	Emax	EC50	% Act. (percent activation relative to Compound A)
CC1(c2ccccc2)C(=O)Nc2nc(-c3cn4ccnc4c(OCC(F)(F)C(F)(F)F)n3)nc(N)c21 (stereo not drawn) [Example 3B, 4-amino-5-methyl-2-[8-(2,2,3,3,3-pentafluoropropoxy)imidazo[1,2-a]pyrazin-6-yl]-5-phenyl-5,7-dihydro-6H-pyrrolo [2,3-d]pyrimidin-6-one]	97%	416 nM	–
CC1(c2ccc(Cl)cc2)C(=O)Nc2nc(-c3cn4ccnc4c(NCC4CCCCO4)n3)nc(N)c21 (single isomer, unassigned; slow eluting) [Example 71B, 4-amino-5-(4-chlorophenyl)-5-methyl-2-{8-[(tetrahydro-2H-pyran-2-ylmethyl)amino]imidazo [1,2-a]pyrazin-6-yl}-5,7-dihydro-6H-pyrrolo[2,3-d] pyrimidin-6-one (slow eluting)]	–	143 nM	95%
COCCNc1nc(-c2nc(N)c3c(n2)NC(=O)C3(C)c2ccc(F)cc2)cn2ccnc12 (stereo not drawn) [Example 52A, 4-amino-5-(4-fluorophenyl)-2-{8-[(2-methoxyethyl)amino]imidazo [1,2-a]pyrazin-6-yl}-5-methyl-5,7-dihydro-6H-pyrrolo[2,3-d] pyrimidin-6-one]	101%	244 nM	–
CC1(c2ccc(Cl)cc2)C(=O)Nc2nc(-c3cn4ccnc4c(NCC4CCCOC4)n3)nc(N)c21 (single isomer, unassigned; slow eluting) [Example 72B, 4-amino-5-(4-chlorophenyl)-5-methyl-2-{8-[(tetrahydro-2H-pyran-3-ylmethyl)amino]imidazo [1,2-a]pyrazin-6-yl}-5,7-dihydro-6H-pyrrolo[2,3-d] pyrimidin-6-one (slow eluting)]	–	412 nM	94%
CC1(c2ccc(Cl)cc2)C(=O)Nc2nc(-c3cn4ccnc4c(OCC4CCCCO4)n3)nc(N)c21 (single isomer, unassigned; fast eluting) [Example 68A, 4-amino-5-(4-chlorophenyl)-5-methyl-2-[8-(tetrahydro-2H-pyran-2-ylmethoxy)imidazo[1,2-a]pyrazin-6-yl]-5,7-dihydro-6H-pyrrolo [2,3-d] pyrimidin-6-one (fast eluting)]	86%	324 nM	–
CC1(c2ccc(Cl)cc2)C(=O)Nc2nc(-c3cn4ccnc4c(NCC4CCOCC4)n3)nc(N)c21 (stereo not drawn) [Example 59A, 4-amino-5-(4-chlorophenyl)-5-methyl-2-{8-[(tetrahydro-2H-pyran-4-ylmethyl)amino]imidazo [1,2-a]pyrazin-6-yl}-5,7-dihydro-6H-pyrrolo[2,3-d] pyrimidin-6-one]	167%	701 nM	–
CC1(c2ccc(F)cc2)C(=O)Nc2nc(-c3cn4ccnc4c(Oc4cccnc4)n3)nc(N)c21 (stereo not drawn) [Example 29A, 4-amino-5-(4-fluorophenyl)-5-methyl-2-[8-(pyridin-3-yloxy)imidazo[1,2-a]pyrazin-6-yl]-5,7-dihydro-6H-pyrrolo[2,3-d] pyrimidin-6-one]	158%	422 nM	–
CC1(c2ccc(F)cc2)C(=O)Nc2nc(-c3cn4cc(C(F)(F)F)nc4c(Oc4cccc(F)c4)n3)nc(N)c21 (stereo not drawn) [Example 35A, 4-Amino-2-(8-(3-fluorophenoxy)-2-(trifluoromethyl)imidazo[1,2-a]pyrazin-6-yl)-5-(4-fluorophenyl)-5-methyl-5H-pyrrolo[2,3-d]pyrimidin-6(7H)-one]	94%	468 nM	–
Nc1nc(-c2cn3ccnc3c(OCC(F)(F)C(F)(F)F)n2)nc2c1C(c1ccc(F)cc1)(C1CC1)C(=O)N2 (stereo not drawn) [Example 14B, 4-amino-5-cyclopropyl-5-(4-fluorophenyl)-2-[8-(2,2,3,3,3-pentafluoropropoxy)imidazo[1,2-a]pyrazin-6-yl]-5,7-dihydro-6H-pyrrolo [2,3-d]pyrimidin-6-one]	96%	534 nM	–
CC1(c2ccc(Cl)cc2)C(=O)Nc2nc(-c3cn4ccnc4c(OCC4CCCCO4)n3)nc(N)c21 (single isomer, unassigned; slow eluting) [Example 68B, 4-amino-5-(4-chlorophenyl)-5-methyl-2-[8-(tetrahydro-2H-pyran-2-ylmethoxy)imidazo[1,2-a]pyrazin-6-yl]-5,7-dihydro-6H-pyrrolo [2,3-d] pyrimidin-6-one (slow eluting)]	–	633 nM	85%
CC1(c2ccc(F)cc2)C(=O)Nc2nc(-c3cn4ccnc4c(OCC4CCCCC4)n3)nc(N)c21 (stereo not drawn) [Example 43A, 4-amino-2-[8-(cyclohexyl-methoxy)imidazo [1,2-a]pyrazin-6-yl]-5-(4-fluorophenyl)-5-methyl-5,7-dihydro-6H-pyrrolo[2,3-d] pyrimidin-6-one]	116%	17 nM	–
CC1(c2ccc(F)cc2)C(=O)Nc2nc(-c3cn4ccnc4c(OCCC4CC4(F)F)n3)nc(N)c21 (stereo not drawn) [Example 41A, 4-amino-2-{8-[2-(2,2-difluoro-cyclopropyl)ethoxy]imidazo[1,2-a]pyrazin-6-yl}-5-(4-fluorophenyl)-5-methyl-5,7-dihydro-6H-pyrrolo[2,3-d] pyrimidin-6-one]	94%	644 nM	–
CC1(c2ccc(F)cc2)C(=O)Nc2nc(-c3cn4ccnc4c(Oc4cc(F)cc(F)c4)n3)nc(N)c21 (stereo not drawn) [Example 23A, 4-amino-2-[8-(3,5-difluorophenoxy)imidazo[1,2-a]pyrazin-6-yl]-5-(4-fluorophenyl)-5-methyl-5,7-dihydro-6H-pyrrolo[2,3-d] pyrimidin-6-one]	100%	16 nM	–
CC1(c2ccc(F)cc2)C(=O)Nc2nc(-c3cn4ccnc4c(OCC4CCCC4)n3)nc(N)c21 (stereo not drawn) [Example 45A, 4-amino-2-[8-(cyclopentyl-methoxy)imidazo [1,2-a]pyrazin-6-yl]-5-(4-fluoro-phenyl)-5-methyl-5,7-dihydro-6H-pyrrolo[2,3-d] pyrimidin-6-one]	110%	13 nM	–
CC1(c2ccc(F)cc2)C(=O)Nc2nc(-c3cn4cc(C5CC5)nc4c(Oc4cccc(F)c4)n3)nc(N)c21 (stereo not drawn) [Example 38A, 4-amino-2-[2-cyclopropyl-8-(3-fluorophenoxy)imidazo[1,2-a]pyrazin-6-yl]-5-(4-fluorophenyl)-5-methyl-5,7-dihydro-6H-pyrrolo[2,3-d] pyrimidin-6-one]	92%	748 nM	–
